Results taken from US6737383B1, “Herbicidal oxadiazolidines” (priority 1999, dated 2004).

Assays:
wild oat = test: Test B pre/postemergence wild oat; format: in vivo, Avena fatua
Summary of the method: (§1)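 Response is a visual 0-to-10 score relative to untreated plants, where 0 means no effect and 10 means complete control, taken twelve to sixteen days after application. Treatments went onto soil at planting and onto foliage of 1- to 4-leaf plants, using a surfactant-containing non-phytotoxic solvent.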

purple nutsedge = test: Test B pre/postemergence purple nutsedge; format: in vivo, Cyperus rotundus
Summary of the method: as §1

surinam grass = test: Test B pre/postemergence surinam grass; format: in vivo, Brachiaria decumbens
Summary of the method: as §1

sugar beet = test: Test B pre/postemergence sugar beet; format: in vivo, Beta vulgaris
Summary of the method: as §1

rape = test: Test B pre/postemergence rape; format: in vivo, Brassica napus
Summary of the method: as §1

corn = test: Test B pre/postemergence corn; format: in vivo, Zea mays
Summary of the method: as §1

pigweed = test: Test B pre/postemergence pigweed; format: in vivo, Amaranthus retroflexus
Summary of the method: as §1

wheat = test: Test B pre/postemergence wheat; format: in vivo, Triticum aestivum
Summary of the method: as §1

crabgrass = test: Test B pre/postemergence crabgrass; format: in vivo, Digitaria sanguinalis
Summary of the method: as §1

morningglory = test: Test B pre/postemergence morningglory; format: in vivo, Ipomoea hederacea
Summary of the method: as §1

duck salad = test: Test B flood test duck salad; format: in vivo, Heteranthera limosa
Summary of the method: (§2)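 Flood test on plants grown to the 2-leaf stage; treated plants kept in greenhouse twelve to sixteen days, then visually rated against controls on a 0 (no effect) to 10 (complete control) scale.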

giant foxtail = test: Test B pre/postemergence giant foxtail; format: in vivo, Setaria faberii
Summary of the method: as §1

blackgrass = test: Test B pre/postemergence blackgrass; format: in vivo, Alopecurus myosuroides
Summary of the method: as §1

bamyardgrass = test: Test B flood test barnyardgrass; format: in vivo, Echinochloa crus-galli
Summary of the method: as §2

soybean = test: Test B pre/postemergence soybean; format: in vivo, Glycine max
Summary of the method: as §1

smallflower flatsedge = test: Test B flood test smallflower flatsedge; format: in vivo, Cyperus difformis
Summary of the method: as §2

rice = test: Test B flood test rice; format: in vivo, Oryza sativa
Summary of the method: as §2

velvetleaf = test: Test B pre/postemergence velvetleaf; format: in vivo, Abutilon theophrasti
Summary of the method: as §1

bedstraw = test: Test B pre/postemergence bedstraw; format: in vivo, Galium aparine; settings: Postemergence; for Plant response rating, Bedstraw: scale 0 to 10, 0 is no effect, 10 is complete control; for Bedstraw plant response rating: scale of 0 to 10 where 0 is no effect and 10 is complete control
Summary of the method: as §1

cocklebur = test: Test B pre/postemergence cocklebur; format: in vivo, Xanthium strumarium
Summary of the method: as §1

[1] = Postemergence, Rate 500 g/ha, scale of 0 to 10 where 0 is no effect and 10 is complete control
[2] = Preemergence, Rate 62 g/ha, scale 0 to 10 (0 no effect, 10 complete control)
[3] = Preemergence, Rate 125 g/ha, scale of 0 to 10 where 0 is no effect and 10 is complete control
[4] = Preemergence, Rate 250 g/ha, scale 0 to 10, 0 is no effect, 10 is complete control
[5] = Preemergence, Rate 500 g/ha, scale 0 to 10, 0 is no effect, 10 is complete control
[6] = Postemergence, Rate 250 g/ha, scale 0 to 10, 0 is no effect, 10 is complete control
[7] = Postemergence, Rate 125 g/ha, scale 0 to 10, 0 is no effect, 10 is complete control
[8] = Preemergence, Rate 250 g/ha, scale of 0 to 10 where 0 is no effect and 10 is complete control
[9] = Rate 62 g/ha, Postemergence, scale of 0 to 10 where 0 is no effect and 10 is complete control
[10] = Rate 62 g/ha, flood test species, Pre-emergence, visual evaluation after twelve to sixteen days
[11] = Rate 125 g/ha, under heading Pre-emergence, flood test species, visual evaluation after twelve to sixteen days
[12] = Rate 250 g/ha, Pre-emergence, flood-test species, scale 0 to 10, 0 is no effect, 10 is complete control
[13] = Rate 500 g/ha, Pre-emergence, flood test species, scale 0 to 10 (0 no effect, 10 complete control)

SMILES: CC(C)N(C(=O)n1oc(=O)n(C(C)CCl)c1=O)c1ccc(F)cc1F (centres unmarked) [Compound 408]
- Wild oats plant response rating (wild oat; [1]): 3
- Plant response rating, Wild oats (wild oat; [2]): 0
- Plant response rating, Wild oats (wild oat; [3]): 2
- Wild oats plant response rating (wild oat; [4]): 5
- Wild oats plant response rating (wild oat; [5]): 8
- Plant response rating, Nutsedge (purple nutsedge; [6]): 2
- Nutsedge plant response rating (purple nutsedge; [1]): 3
- Plant response rating, Nutsedge (purple nutsedge; [2]): 0
- Plant response rating, Nutsedge (purple nutsedge; [3]): 0
- Nutsedge plant response rating (purple nutsedge; [4]): 0
- Nutsedge plant response rating (purple nutsedge; [5]): 0
- Plant response rating, B. signalgrass (surinam grass; [7]): 0
- Plant response rating, B. signalgrass (surinam grass; [6]): 0
- B. signalgrass plant response rating (surinam grass; [1]): 5
- Plant response rating, B. signalgrass (surinam grass; [2]): 0
- Plant response rating, B. signalgrass (surinam grass; [3]): 2
- B. signalgrass plant response rating (surinam grass; [8]): 4
- B. signalgrass plant response rating (surinam grass; Preemergence, Rate 500 g/ha, scale of 0 to 10 where 0 is no effect and 10 is complete control): 7
- B. signalgrass plant response rating (surinam grass; [9]): 0
- Plant response rating, Sugarbeets (sugar beet; [6]): 0
- Sugarbeets plant response rating (sugar beet; [1]): 6
- Plant response rating, Sugarbeets (sugar beet; [2]): 2
- Plant response rating, Sugarbeets (sugar beet; [3]): 4
- Sugarbeets plant response rating (sugar beet; [4]): 8
- Sugarbeets plant response rating (sugar beet; [5]): 8
- Rape plant response rating (rape; [1]): 2
- Plant response rating, Rape (rape; [2]): 0
- Plant response rating, Rape (rape; [3]): 0
- Rape plant response rating (rape; [4]): 6
- Rape plant response rating (rape; [5]): 8
- Plant response rating, Corn (corn; [7]): 0
- Plant response rating, Corn (corn; [6]): 0
- Corn plant response rating (corn; [1]): 0
- Plant response rating, Corn (corn; [2]): 0
- Plant response rating, Corn (corn; [3]): 2
- Corn plant response rating (corn; [4]): 4
- Corn plant response rating (corn; [5]): 8
- Corn plant response rating (corn; [9]): 0
- Plant response rating, Redroot pigweed (pigweed; [6]): 0
- Redroot pigweed plant response rating (pigweed; [1]): 7
- Plant response rating, Redroot pigweed (pigweed; [2]): 4
- Plant response rating, Redroot pigweed (pigweed; [3]): 6
- Redroot pigweed plant response rating (pigweed; [4]): 10
- Redroot pigweed plant response rating (pigweed; [5]): 10
- Wheat plant response rating (wheat; [1]): 2
- Plant response rating, Wheat (wheat; [2]): 0
- Plant response rating, Wheat (wheat; [3]): 0
- Wheat plant response rating (wheat; [4]): 4
- Wheat plant response rating (wheat; [5]): 7
- Plant response rating, Crabgrass (crabgrass; [7]): 4
- Plant response rating, Crabgrass (crabgrass; [6]): 8
- Crabgrass plant response rating (crabgrass; [1]): 9
- Plant response rating, Crabgrass (crabgrass; [2]): 9
- Plant response rating, Crabgrass (crabgrass; [3]): 10
- Crabgrass plant response rating (crabgrass; [4]): 10
- Crabgrass plant response rating (crabgrass; [5]): 10
- Crabgrass plant response rating (crabgrass; [9]): 3
- Plant response rating, Morningglory (morningglory; [6]): 7
- Morningglory plant response rating (morningglory; [1]): 7
- Plant response rating, Morningglory (morningglory; [2]): 0
- Plant response rating, Morningglory (morningglory; [3]): 0
- Morningglory plant response rating (morningglory; [4]): 0
- Morningglory plant response rating (morningglory; [5]): 7
- Plant response rating, Ducksalad (0 to 10 scale, 0 is no effect, 10 is complete control) (duck salad; [10]): 0
- Ducksalad plant response rating (0 to 10 scale, 0 is no effect, 10 is complete control) (duck salad; [11]): 0
- Ducksalad plant response rating (duck salad; [12]): 0
- Ducksalad plant response rating (duck salad; [13]): 0
- Plant response rating, Giant foxtail (giant foxtail; [7]): 9
- Plant response rating, Giant foxtail (giant foxtail; [6]): 9
- Giant foxtail plant response rating (giant foxtail; [1]): 9
- Plant response rating, Giant foxtail (giant foxtail; [2]): 10
- Plant response rating, Giant foxtail (giant foxtail; [3]): 10
- Giant foxtail plant response rating (giant foxtail; [4]): 10
- Giant foxtail plant response rating (giant foxtail; [5]): 10
- Giant foxtail plant response rating (giant foxtail; [9]): 9
- Plant response rating, Blackgrass (blackgrass; [7]): 2
- Plant response rating, Blackgrass (blackgrass; [6]): 9
- Blackgrass plant response rating (blackgrass; [1]): 10
- Plant response rating, Blackgrass (blackgrass; [2]): 6
- Plant response rating, Blackgrass (blackgrass; [3]): 9
- Blackgrass plant response rating (blackgrass; [8]): 9
- Blackgrass plant response rating (blackgrass; [5]): 10
- Blackgrass plant response rating (blackgrass; [9]): 0
- Plant response rating, Barnyardgrass (0 to 10 scale, 0 is no effect, 10 is complete control) (bamyardgrass; [10]): 0
- Barnyardgrass plant response rating (0 to 10 scale, 0 is no effect, 10 is complete control) (bamyardgrass; [11]): 0
- Barnyardgrass plant response rating (bamyardgrass; [12]): 0
- Barnyardgrass plant response rating (bamyardgrass; [13]): 0
- Plant response rating, Soybean (soybean; [6]): 3
- Soybean plant response rating (soybean; [1]): 4
- Plant response rating, Soybean (soybean; [2]): 0
- Plant response rating, Soybean (soybean; [3]): 0
- Soybean plant response rating (soybean; [4]): 0
- Soybean plant response rating (soybean; [5]): 0
- Plant response rating, S. Flatsedge (0 to 10 scale, 0 is no effect, 10 is complete control) (smallflower flatsedge; [10]): 0
- S. Flatsedge plant response rating (0 to 10 scale, 0 is no effect, 10 is complete control) (smallflower flatsedge; [11]): 0
- S. Flatsedge plant response rating (smallflower flatsedge; [12]): 0
- S. Flatsedge plant response rating (smallflower flatsedge; [13]): 0
- Plant response rating, Rice (0 to 10 scale, 0 is no effect, 10 is complete control) (rice; [10]): 0
- Rice plant response rating (0 to 10 scale, 0 is no effect, 10 is complete control) (rice; [11]): 0
- Rice plant response rating (rice; [12]): 0
- Rice plant response rating (rice; [13]): 0
- Plant response rating, Velvetleaf (velvetleaf; [6]): 0
- Velvetleaf plant response rating (velvetleaf; [1]): 4
- Plant response rating, Velvetleaf (velvetleaf; [2]): 0
- Plant response rating, Velvetleaf (velvetleaf; [3]): 1
- Velvetleaf plant response rating (velvetleaf; [4]): 7
- Velvetleaf plant response rating (velvetleaf; [5]): 7
- Plant response rating, Bedstraw (bedstraw; Rate 125 g/ha): 6
- Plant response rating, Bedstraw (bedstraw; Rate 250 g/ha): 8
- Bedstraw plant response rating (bedstraw; Rate 500 g/ha): 9
- Bedstraw plant response rating (bedstraw; Rate 62 g/ha): 6
- Plant response rating, Cocklebur (cocklebur; [7]): 0
- Plant response rating, Cocklebur (cocklebur; [6]): 0
- Cocklebur plant response rating (cocklebur; [1]): 3
- Plant response rating, Cocklebur (cocklebur; [2]): 0
- Plant response rating, Cocklebur (cocklebur; [3]): 0
- Cocklebur plant response rating (cocklebur; [4]): 0
- Cocklebur plant response rating (cocklebur; [5]): 0
- Cocklebur plant response rating (cocklebur; [9]): 0
